Test results from US12053479B2, “Transdermal treatment for erectile dysfunction” (Madera Pharmaceuticals, Inc., priority 2020, dated 2024).
Read-outs that look alike come from different tables or passages of the source.

Experiments:
[1] = Drug solubility in individual excipients
[2] = In vitro permeation testing (IVPT), diffusion cell; details: cumulative amount in receptor solution versus time (FIGS. 2-4)
Source text: With reference to FIG. 1, in vitro skin permeation experiments used a diffusion cell designed to mimic the physiological and anatomical conditions of skin in situ. The diffusion cell included a donor compartment configured to receive the formulation, or solvent system, to be tested. A receptor compartment included a flow path for receptor solution, which was to be analyzed. Dermatomed skin was arranged between the donor compartment and receptor compartment. As such, a formulation comprising the solvent system having the drug is applied to the skin in the donor compartment. A portion of the drug permeated through the skin into the receptor solution, which was analyzed to determine drug concentration at several time periods, including 0.25, 0.5, 1, 1.5 2, 4, 6 and 8 hours. […]
The receptor solution was collected and analyzed as discussed. The cumulative amount per cm^2 of phentolamine, papaverine, and prostaglandin permeated into the receptor solution was calculated from drug concentrations measured in the receptor solution over time. The cumulative amount per cm^2 of phentolamine, papaverine, and prostaglandin at the final timepoint was calculated for each replicate. […] Means and standard errors were calculated and reported in figures and tables, including Tables 5 and 6 below.

[3] = in water, buffer solutions (pH 4 and 7) and glycerol

Compound | Solubility (in words) ([1]; in ethanol and transcutol P) | Solubility [1, 3] | Solubility (in words) [1, 3] | Saturated solubility (solvent system SSAG01, all three drugs combined) | Saturated solubility (solvent system SSAG01, drug added individually) | Saturated solubility (solvent system SSAG02, all three drugs combined) | Saturated solubility (solvent system SSAG02, drug added individually) | Saturated solubility (upon addition of phentolamine mesylate and prostaglandin E1, span over all solvent systems) | Amount permeated through the skin, SSAG02 with all of the drugs versus SSAG02 with the drug alone [2]
COc1ccc(Cc2nccc3cc(OC)c(OC)cc23)cc1OC.Cl [Papaverine HCl, papaverine hydrochloride] | poorly soluble | 2-3 % w/w | moderately soluble | 7.58 % w/w | 6.39 % w/w | 9.44 % w/w | 7.21 % w/w | 7.58-9.44 % w/w | much greater amount
CCCCC[C@H](O)/C=C/[C@H]1[C@H](O)CC(=O)[C@@H]1CCCCCCC(=O)O [Prostaglandin E1] | strongly soluble | – | poorly soluble | – | – | – | – | – | –
